Experimental data: ChEMBL document CHEMBL3400054, “Polybrominated diphenyl ethers with potent and broad spectrum antimicrobial activity from the marine sponge Dysidea” (2015)
Converted amounts (≈) assume the structure as drawn.

Tests used:
Assay type in all cases: functional
[1] = system: Salmonella sp.; assay: Antimicrobial activity against Salmonella sp. incubated at 37 degC for 24 hrs by broth macrodilution method
[2] = system: Staphylococcus aureus; assay: Antimicrobial activity against methicillin-resistant Staphylococcus aureus incubated at 37 degC for 24 hrs by broth macrodilution method
[3] = system: Clostridioides difficile; assay: Antimicrobial activity against Clostridium difficile ATCC 9689 incubated at 37 degC for 24 hrs by broth macrodilution method; conditions: ATCC 9689, 24 h
[4] = system: Campylobacter jejuni; assay: Antimicrobial activity against Campylobacter jejuni ATCC 33291 incubated at 37 degC for 24 hrs by broth macrodilution method; conditions: ATCC 33291, 24 h
[5] = system: Listeria monocytogenes; assay: Antimicrobial activity against Listeria monocytogenes incubated at 37 degC for 24 hrs by broth macrodilution method
[6] = system: Klebsiella pneumoniae; assay: Antimicrobial activity against Klebsiella pneumoniae
[7] = system: Klebsiella pneumoniae; assay: Antimicrobial activity against Klebsiella pneumoniae ATCC 13883 incubated at 37 degC for 24 hrs by broth macrodilution method; conditions: ATCC 13883, 24 h
[8] = system: Bacillus cereus; assay: Antimicrobial activity against Bacillus cereus incubated at 37 degC for 24 hrs by broth macrodilution method
[9] = system: Streptococcus pneumoniae; assay: Antimicrobial activity against Streptococcus pneumoniae incubated at 37 degC for 24 hrs by broth macrodilution method
[10] = system: Escherichia coli; assay: Antimicrobial activity against Escherichia coli O157:H7 incubated at 37 degC for 24 hrs by broth macrodilution method; conditions: O157:H7, 24 h
[11] = system: Pseudomonas; assay: Antimicrobial activity against Pseudomonas incubated at 37 degC for 24 hrs by broth macrodilution method
[12] = system: Staphylococcus aureus; assay: Antimicrobial activity against methicillin-sensitive Staphylococcus aureus incubated at 37 degC for 24 hrs by broth macrodilution method
[13] = system: Pseudomonas aeruginosa; assay: Antimicrobial activity against Pseudomonas aeruginosa incubated at 37 degC for 24 hrs by broth macrodilution method
[14] = system: Neisseria gonorrhoeae; assay: Antimicrobial activity against Neisseria gonorrhoeae incubated at 37 degC for 24 hrs by broth macrodilution method

SMILES	MIC [1] [µg/mL]	MIC [2] [µg/mL]	MIC [3] [µg/mL]	MIC [4] [µg/mL]	MIC [5] [µg/mL]	MIC [6] [µg/mL]	MIC [7] [µg/mL]	MIC [8] [µg/mL]	MIC [9] [µg/mL]	MIC [10] [µg/mL]	MIC [11] [µg/mL]	MIC [12] [µg/mL]	MIC [13] [µg/mL]	MIC [14] [µg/mL]
Oc1cc(Br)c(Br)c(Br)c1Oc1ccc(Br)cc1Br	10 (≈ 17.2 µM)	0.1 (≈ 0.172 µM)	10 (≈ 17.2 µM)	5 (≈ 8.61 µM)	0.1 (≈ 0.172 µM)	–	–	–	–	–	–	–	–	–
CO[C@@]1(NC(=O)Cc2cccs2)C(=O)N2C(C(=O)O)=C(COC(N)=O)CS[C@@H]21 [CEFOXITIN]	–	–	–	–	–	2 (≈ 4.68 µM)	0.25 (≈ 0.585 µM)	–	–	–	–	–	–	–
Oc1c(Br)cc(Br)cc1Oc1ccc(Br)cc1Br	10 (≈ 19.9 µM)	1 (≈ 1.99 µM)	10 (≈ 19.9 µM)	5 (≈ 9.96 µM)	1 (≈ 1.99 µM)	–	5 (≈ 9.96 µM)	5 (≈ 9.96 µM)	5 (≈ 9.96 µM)	10 (≈ 19.9 µM)	–	–	–	–
O=C(O)c1cn(C2CC2)c2cc(N3CCNCC3)c(F)cc2c1=O [CIPROFLOXACIN]	–	–	–	–	–	0.5 (≈ 1.51 µM)	0.125 (≈ 0.377 µM)	–	–	–	–	–	–	–
Oc1cc(Br)cc(Br)c1Oc1ccc(Br)cc1Br	1 (≈ 1.99 µM)	0.1 (≈ 0.199 µM)	4 (≈ 7.97 µM)	5 (≈ 9.96 µM)	2 (≈ 3.99 µM)	–	0.1 (≈ 0.199 µM)	0.1 (≈ 0.199 µM)	–	8 (≈ 15.9 µM)	4 (≈ 7.97 µM)	1 (≈ 1.99 µM)	16 (≈ 31.9 µM)	2 (≈ 3.99 µM)
C[C@@H](O)[C@H]1C(=O)N2C(C(=O)O)=C(SCCNC=N)C[C@H]12 [IMIPENEM ANHYDROUS]	–	–	–	–	–	0.25 (≈ 0.835 µM)	0.25 (≈ 0.835 µM)	–	–	–	–	–	–	–
